Key:
[1] = system: fatty acid synthase system; assay type: cell-based, E. coli
[2] = molecular target: KASI ketoacyl-ACP synthase (e.g., fabB in E. coli) (Escherichia coli, UniProt P0A953); details: KX3_0001, fed-batch medium, 24 h
Sequence of KASI ketoacyl-ACP synthase (e.g., fabB in E. coli) (P0A953 whole entry): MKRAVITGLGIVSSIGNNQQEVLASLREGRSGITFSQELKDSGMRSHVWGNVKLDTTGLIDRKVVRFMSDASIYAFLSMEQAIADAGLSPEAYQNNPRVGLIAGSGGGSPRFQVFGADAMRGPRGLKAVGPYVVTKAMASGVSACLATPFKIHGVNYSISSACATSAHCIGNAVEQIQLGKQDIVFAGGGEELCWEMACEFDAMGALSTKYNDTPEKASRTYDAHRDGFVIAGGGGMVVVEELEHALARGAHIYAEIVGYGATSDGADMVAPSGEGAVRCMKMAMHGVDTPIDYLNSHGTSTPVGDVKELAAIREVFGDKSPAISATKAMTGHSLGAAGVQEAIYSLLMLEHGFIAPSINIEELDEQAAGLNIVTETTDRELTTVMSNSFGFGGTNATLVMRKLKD
Procedure: Cultures were started from freezer stocks by standard practice (Sambrook and Russell, 2001) into 50 mL of LB media plus 100 μg/mL ampicillin and grown to stationary phase overnight at 37° C. with rotation at 225 rpm. Five ml of this culture were transferred to 100 ml of fed-batch or AM2 media plus 40 g/L glucose, 100 kg/ml ampicillin, 1 mM IPTG in triplicate 250-ml baffled flasks, and incubated at 37° C., 225 rpm. […] Dry cell weight (DCW) is calculated as 0.33 times the measured OD600 value, based on baseline DCW to OD600 determinations. All data are the average of triplicate cultures.

With `C/C=C/C/C=C/CCC(=O)[C@H]1O[C@H]1C(N)=O` [cerulenin] the “increase in specific productivity relative to the results without cerulenin” value ([1]; BX3_0206, SM3 medium, 24 hours) was “approximately 40 fold”, the 3HP ([1]; strain BX3_0194, SM3 medium, cerulenin, 4 hr) was 0.003 gIL and the “increase in specific productivity relative to the results without cerulenin” value [2] was 31 fold.

Source: patent publication US20180312886A1, “MICROBIAL PRODUCTION OF CHEMICAL PRODUCTS AND RELATED COMPOSITIONS, METHODS AND SYSTEMS” (CARGILL INCORPORATED, priority 2014, published 2018)
